Data as given in PubChem BioAssay AID1645865 (Buhrlage Lab, Dana-Farber Cancer Institute and Novartis …, 2021).
Calls of active or inactive are those of the source.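 The calls were made as follows: active = maximal inhibition of the USP30 enzyme reaching 30% or more across the dose series; inactive = the rest.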

biological target: Ubiquitin carboxyl-terminal hydrolase 30 (Homo sapiens) (UniProt Q70CQ3); experiment: inhibitors of ubiquitin-specific protease 30 deubiquitylating enzyme, concentration dependence, in vitro biochemical, validation of primary hits (AID 1645865); details: purified USP30, Ub-rhodamine cleavage, fluorescence, 2 h
Sequence (Q70CQ3 whole entry, looked up): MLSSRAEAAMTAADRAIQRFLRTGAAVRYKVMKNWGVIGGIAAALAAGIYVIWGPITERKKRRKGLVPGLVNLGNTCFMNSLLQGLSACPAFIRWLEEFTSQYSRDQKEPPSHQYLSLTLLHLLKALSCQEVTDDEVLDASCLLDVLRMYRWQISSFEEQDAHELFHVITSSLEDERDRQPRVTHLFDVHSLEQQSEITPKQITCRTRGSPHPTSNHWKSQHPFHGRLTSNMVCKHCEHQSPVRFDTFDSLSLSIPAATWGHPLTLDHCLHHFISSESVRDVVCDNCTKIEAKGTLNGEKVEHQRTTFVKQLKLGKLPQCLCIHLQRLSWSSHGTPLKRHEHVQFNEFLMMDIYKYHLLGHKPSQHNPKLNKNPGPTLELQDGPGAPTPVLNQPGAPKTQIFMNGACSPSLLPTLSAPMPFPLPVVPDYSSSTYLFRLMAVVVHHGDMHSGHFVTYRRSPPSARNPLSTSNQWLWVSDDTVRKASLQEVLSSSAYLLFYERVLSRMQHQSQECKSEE

IC50	Structure (SMILES)
1.01 µM	CCOC(=O)c1ccc(NC(=O)Cn2c(=O)n(CC(=O)NCc3ccco3)c(=O)c3ccccc32)cc1
> 50 µM (inactive)	CCOC(=O)c1cc2c(ccn2C)n1CC(=O)N1CCC(C)CC1
18.3 µM	COc1ccc(CCNC(=O)CCCn2c(=O)c3ccccc3n(CC(=O)OCc3ccccc3)c2=O)cc1OC
> 50 µM (inactive)	O=C(O)c1ccccc1C(=O)Nc1ccc(SC(C(=O)Nc2ccccc2)c2ccccc2)cc1 (centres undefined)
> 50 µM (inactive)	Cc1nn(-c2nc3ccccc3[nH]2)c2c1C(c1cccs1)CC(=O)N2 (centres undefined)
2.32 µM	COc1ccc(NC(=O)Cn2cc(C(=O)c3ccc(C)cc3)c(=O)c3ccccc32)cc1
19.4 µM	COc1ccc2c(c1)CCc1c(C(=O)NCc3cccnc3)noc1-2
44.4 µM	Cc1c(-c2nnc(-c3ccccn3)o2)nnn1-c1cccc(Cl)c1
> 50 µM (inactive)	Cn1ccc2c(cc(C(=O)NCCC3=CCCCC3)n2C)c1=O
32.7 µM	Cc1cc(=O)n(CC(=O)NCc2ccccc2F)c2c1c(C)nn2-c1ccccc1
42.2 µM	O=C1COc2ccc(NC(=O)c3cnn(Cc4ccccc4)c3)cc2N1
> 50 µM (inactive)	CC(C)(C)N=C1Nc2ncccc2NC12CCCN(C(=O)c1ccccc1)C2 (centres undefined)
> 50 µM (inactive)	O=C(NC1CCCCC1)c1cc2c(cn1)[nH]c1ccccc12

Structure (SMILES)	IC50
CC(=O)O[C@H]1[C@]2(O)C[C@]34SS[C@](CO)(C(=O)N3[C@@H]2C[C@@]12O[C@@H](C)C(C)(C)C2=O)N(C)C4=O	2.25 µM
